Assay results taken from publication PMC8351955, “Targeting Mycobacterium tuberculosis response to environmental cues for the development of effective antitubercular drugs” (PLoS Biology, 2021).
Where “and” joins values, the source holds several entries; their conditions need not be identical. Equal entries are not always repeated. Where two headings read alike, the source gives them in different places.

What was measured:
[1] = system: Mtb-infected J774 cells; conditions: 10 μM, 24 hours, 5 days post-infection
[2] = biological target: CYP2C9 (Homo sapiens, UniProt P11712); test: Human cytochrome P450 inhibition, 2C9; format: in vitro ADME; conditions: read-out: % inhibition of CYP 2C9
Sequence of CYP2C9 (P11712 whole entry): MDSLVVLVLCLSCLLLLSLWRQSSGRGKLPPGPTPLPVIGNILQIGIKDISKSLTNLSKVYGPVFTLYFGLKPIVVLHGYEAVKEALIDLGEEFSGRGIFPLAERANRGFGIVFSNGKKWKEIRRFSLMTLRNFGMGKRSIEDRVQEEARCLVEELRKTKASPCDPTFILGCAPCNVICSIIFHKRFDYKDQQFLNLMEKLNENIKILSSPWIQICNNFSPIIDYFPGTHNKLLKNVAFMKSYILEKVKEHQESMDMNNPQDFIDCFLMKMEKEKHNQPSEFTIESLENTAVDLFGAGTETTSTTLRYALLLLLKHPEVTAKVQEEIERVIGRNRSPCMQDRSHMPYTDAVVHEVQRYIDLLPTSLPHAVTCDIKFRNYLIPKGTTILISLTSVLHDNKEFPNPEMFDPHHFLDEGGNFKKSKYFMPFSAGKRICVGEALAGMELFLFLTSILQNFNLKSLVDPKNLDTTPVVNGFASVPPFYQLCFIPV
Experimental: Assays examining mouse and human liver microsomal stability, kinetic aqueous solubility, mouse and human plasma protein binding and stability, and human cytochrome P450 inhibition characteristics of the compounds were run by BioDuro (San Diego, CA), using standard protocols as previously described [37]. hERG inhibition assays were also performed by BioDuro.

[3] = system: macrophage phagosomal [Cl−] in BMDMs; test: Phagosomal maturation assay, BAC/AF594 beads (Cl− readout); format: cell-based, mouse
Experimental: Carboxyfluorescein (pH readout), DQ-BSA/Alexa Fluor 594 (AF594) (proteolysis readout), and BAC/AF594 (Cl^− readout) beads were generated essentially as previously described, except that 10,10′-Bis[3-carboxylpropyl]-9,9′-biacridinium dinitrate di-NHS ester (BAC-SE) was purchased from emp Biotech LLC. BMDMs were isolated from C57BL/6J mice (The Jackson Laboratory) and maintained as described above. […] Assay buffer consisted of PBS (pH 7.2), supplemented with 5% FBS, 5 mM dextrose, 1 mM CaCl2, 2.7 mM KCl, and 0.5 mM MgCl2 in the case of assays with the carboxyfluorescein or DQ-BSA/AF594 beads. For assays with the BAC/AF594 beads, assay buffer consisted of PBS (pH 7.2), supplemented with 5% FBS, 5 mM dextrose, 1 mM calcium acetate, 1.35 mM K2SO4, and 0.5 mM MgSO4 [9]. Sensor beads at approximately 2 to 5 beads/macrophage in appropriate assay buffer were finally added, with data acquisition on a Biotek Synergy H1 microplate reader with bottom read signal detection started within 2 to 3 minutes of bead addition. Excitation/emission wavelengths were 450 nm/520 nm and 490 nm/520 nm for carboxyfluorescein, 490 nm/520 nm for DQ-BSA, 365 nm/505 nm for BAC, and 590 nm/617 nm for AF594. Each experiment was run with a total of 3 to 5 replicate wells/condition, with temperature maintained at 37°C throughout the assay. Wells were read every 2 minutes for 2 hours for the carboxyfluorescein bead assays, every 2 minoutes for 4 hours for the DQ-BSA/AF594 bead assays, and every 1 minute for 2 hours for the BAC/AF594 bead assays. Analyses of the results were performed as previously described.

[4] = system: CDC1551(rv2390c′::GFP) reporter Mtb strain, response to high [Cl−]; test: microbe, parasite or virus in culture; format: cell-based, Mycobacterium tuberculosis
[5] = system: Mtb; test: Mtb growth assay in cholesterol medium (OD600); conditions: for OD600: Fig. 2G
Description: Bacterial growth was tracked by measuring OD600 every 3 days for 12 days. […] Bacterial growth was tracked by measurement of OD600 every 3 days over 12 days.

## CCSc1ncc(CN2CCN(c3nc4ccccc4o3)CC2)cn1 [C6, 2-(4-((2-(ethylthio)pyrimidin-5-yl)methyl)piperazin-1-yl)benzo[d]oxazole]
[1]
  Accumulation in Mtb-infected J774 cells: confirmed C6 accumulation
[2]
  inhibition at 10 µM: 25.7%
[3]; 10 μM, uninfected BMDMs
  Effect on increase in [Cl−] during macrophage phagosomal maturation: no significant effect
[3]; Time 0 minutes
  AF594/BAC fluorescence, Average: 0.6122
  AF594/BAC fluorescence, replicates: 0.5839 and 0.6162 and 0.6235 and 0.6146 and 0.6227
[3]; Time 1 minutes
  AF594/BAC fluorescence, Average: 0.5459
  AF594/BAC fluorescence, replicates: 0.5421 and 0.5573 (2×) and 0.546 and 0.5266
[3]; Time 2 minutes
  AF594/BAC fluorescence, Average: 0.5408
  AF594/BAC fluorescence, replicates: 0.5319 and 0.5419 and 0.5358 and 0.5431 and 0.5513
[3]; Time 3 minutes
  AF594/BAC fluorescence, Average: 0.5344
  AF594/BAC fluorescence, replicates: 0.5344 and 0.5364 and 0.543 and 0.5118 and 0.5462
[3]; Time 4 minutes
  AF594/BAC fluorescence, Average: 0.5424
  AF594/BAC fluorescence, replicates: 0.5625 and 0.5432 and 0.5412 and 0.5272 and 0.538
[3]; Time 5 minutes
  AF594/BAC fluorescence, Average: 0.5329
  AF594/BAC fluorescence, replicates: 0.545 and 0.5366 and 0.532 and 0.5179 and 0.5328
[3]; Time 7 minutes
  AF594/BAC fluorescence, Average: 0.5364
  AF594/BAC fluorescence, replicates: 0.548 and 0.5294 and 0.5467 and 0.5183 and 0.5395
[3]; Time 9 minutes
  AF594/BAC fluorescence, Average: 0.5382
  AF594/BAC fluorescence, replicates: 0.5413 and 0.5472 and 0.5302 and 0.5353 and 0.5369
[3]; Time 11 minutes
  AF594/BAC fluorescence, Average: 0.548
  AF594/BAC fluorescence, replicates: 0.555 and 0.5414 and 0.5741 and 0.5202 and 0.5492
[3]; Time 13 minutes
  AF594/BAC fluorescence, Average: 0.5691
  AF594/BAC fluorescence, replicates: 0.5666 and 0.5688 and 0.5877 and 0.5543 and 0.5682
[3]; Time 15 minutes
  AF594/BAC fluorescence, Average: 0.5821
  AF594/BAC fluorescence, replicates: 0.5799 and 0.5786 and 0.5955 and 0.5676 and 0.5889
[3]; Time 17 minutes
  AF594/BAC fluorescence, Average: 0.5935
  AF594/BAC fluorescence, replicates: 0.5853 and 0.6046 and 0.6099 and 0.5629 and 0.6045
[3]; Time 19 minutes
  AF594/BAC fluorescence, Average: 0.603
  AF594/BAC fluorescence, replicates: 0.5752 and 0.6161 and 0.6348 and 0.5964
[3]; Time 21 minutes
  AF594/BAC fluorescence, Average: 0.6193
[3]; Time 23 minutes
  AF594/BAC fluorescence, Average: 0.618
[3]; Time 25 minutes
  AF594/BAC fluorescence, Average: 0.6229
[3]; Time 27 minutes
  AF594/BAC fluorescence, Average: 0.6239
[3]; Time 29 minutes
  AF594/BAC fluorescence, Average: 0.6453
[3]; Time 31 minutes
  AF594/BAC fluorescence, Average: 0.6313
[3]; Time 33 minutes
  AF594/BAC fluorescence, Average: 0.6482
[3]; Time 35 minutes
  AF594/BAC fluorescence, Average: 0.6392
[3]; Time 37 minutes
  AF594/BAC fluorescence, Average: 0.6481
[3]; Time 39 minutes
  AF594/BAC fluorescence, Average: 0.6418
[3]; Time 41 minutes
  AF594/BAC fluorescence, Average: 0.6532
[3]; Time 43 minutes
  AF594/BAC fluorescence, Average: 0.6524
[3]; Time 45 minutes
  AF594/BAC fluorescence, Average: 0.6458
[3]; Time 46 minutes
  AF594/BAC fluorescence, Average: 0.6438
[3]; Time 47 minutes
  AF594/BAC fluorescence, Average: 0.6518
[3]; Time 48 minutes
  AF594/BAC fluorescence, Average: 0.6423
[3]; Time 49 minutes
  AF594/BAC fluorescence, Average: 0.6502
[3]; Time 50 minutes
  AF594/BAC fluorescence, Average: 0.6427
[3]; Time 51 minutes
  AF594/BAC fluorescence, Average: 0.6412
[3]; Time 52 minutes
  AF594/BAC fluorescence, Average: 0.6437
[3]; Time 53 minutes
  AF594/BAC fluorescence, Average: 0.6415
[3]; Time 54 minutes
  AF594/BAC fluorescence, Average: 0.6535
[3]; Time 55 minutes
  AF594/BAC fluorescence, Average: 0.646
[3]; Time 56 minutes
  AF594/BAC fluorescence, Average: 0.6496
[3]; Time 57 minutes
  AF594/BAC fluorescence, Average: 0.6559
[3]; Time 58 minutes
  AF594/BAC fluorescence, Average: 0.6523
[3]; Time 59 minutes
  AF594/BAC fluorescence, Average: 0.6473
[3]; Time 60 minutes
  AF594/BAC fluorescence, Average: 0.6412
[3]; Time 61 minutes
  AF594/BAC fluorescence, Average: 0.6401
[3]; Time 62 minutes
  AF594/BAC fluorescence, Average: 0.6424
[3]; Time 63 minutes
  AF594/BAC fluorescence, Average: 0.6429
[3]; Time 64 minutes
  AF594/BAC fluorescence, Average: 0.6497
[3]; Time 65 minutes
  AF594/BAC fluorescence, Average: 0.6542
[3]; Time 66 minutes
  AF594/BAC fluorescence, Average: 0.6415
[3]; Time 67 minutes
  AF594/BAC fluorescence, Average: 0.656
[3]; time 6 minutes
  AF594/BAC fluorescence, Average: 0.5344
  AF594/BAC fluorescence, replicates: 0.55 and 0.5263 and 0.5408 and 0.5119 and 0.5432
[3]; time 8 minutes
  AF594/BAC fluorescence, Average: 0.5381
  AF594/BAC fluorescence, replicates: 0.5319 and 0.5466 and 0.5386 and 0.538 and 0.5353
[3]; time 10 minutes
  AF594/BAC fluorescence, Average: 0.5471
  AF594/BAC fluorescence, replicates: 0.5453 and 0.5491 and 0.5758 and 0.5298 and 0.5354
[3]; time 12 minutes
  AF594/BAC fluorescence, Average: 0.5563
  AF594/BAC fluorescence, replicates: 0.5501 and 0.57 and 0.5742 and 0.5198 and 0.5673
[3]; time 14 minutes
  AF594/BAC fluorescence, Average: 0.5706
  AF594/BAC fluorescence, replicates: 0.5628 and 0.5864 and 0.5841 and 0.542 and 0.5776
[3]; time 16 minutes
  AF594/BAC fluorescence, Average: 0.5854
  AF594/BAC fluorescence, replicates: 0.5806 and 0.5704 and 0.6264 and 0.5665 and 0.5832
[3]; time 18 minutes
  AF594/BAC fluorescence, Average: 0.5961
  AF594/BAC fluorescence, replicates: 0.5808 and 0.5961 and 0.6277 and 0.5767 and 0.5992
[3]; time 20 minutes
  AF594/BAC fluorescence, Average: 0.6147
  AF594/BAC fluorescence, replicates: 0.6043
[3]; time 22 minutes
  AF594/BAC fluorescence, Average: 0.6194
[3]; time 24 minutes
  AF594/BAC fluorescence, Average: 0.6332
[3]; time 26 minutes
  AF594/BAC fluorescence, Average: 0.631
[3]; time 28 minutes
  AF594/BAC fluorescence, Average: 0.638
[3]; time 30 minutes
  AF594/BAC fluorescence, Average: 0.6338
[3]; time 32 minutes
  AF594/BAC fluorescence, Average: 0.6382
[3]; time 34 minutes
  AF594/BAC fluorescence, Average: 0.6489
[3]; time 36 minutes
  AF594/BAC fluorescence, Average: 0.6508
[3]; time 38 minutes
  AF594/BAC fluorescence, Average: 0.652
[3]; time 40 minutes
  AF594/BAC fluorescence, Average: 0.6508
[3]; time 42 minutes
  AF594/BAC fluorescence, Average: 0.6499
[3]; time 44 minutes
  AF594/BAC fluorescence, Average: 0.6458
[4]; 0.0390625 µM, Fig 1C
  NPA - rv2390c'::GFP, average: 83.3%
[4]; 0.078125 µM, Fig 1C
  NPA - rv2390c'::GFP, average: 86.0333%
[4]; 0.15625 µM, Fig 1C
  NPA - rv2390c'::GFP, average: 80.7667%
[4]; 0.3125 µM, Fig 1C
  NPA - rv2390c'::GFP, average: 92.0333%
[4]; 0.625 µM, Fig 1C
  NPA - rv2390c'::GFP, average: 91.4667%
[4]; 1.25 µM, Fig 1C
  NPA - rv2390c'::GFP, average: 105.667%
[4]; 2.5 µM, Fig 1C
  NPA - rv2390c'::GFP, average: 116.333%
[4]; 5 µM, Fig 1C
  NPA - rv2390c'::GFP, average: 113%
[4]; 10 µM, Fig 1C
  NPA - rv2390c'::GFP, average: 126.667%
[4]; 20 µM, Fig 1C
  NPA - rv2390c'::GFP, average: 131%
[4]; Mycobacterium tuberculosis, 144 h, pH 6.4, […], DMSO positive control = 100%, read-out: Primary screen rv2390c'::GFP NPA%
  activity at 10 µM: 164%
[4]; Mycobacterium tuberculosis, 144 h, 10 µM, pH 6.4, 250 mM NaCl, 6 days, read-out: rv2390c'::GFP validation assay NPA% at 10 µM compound
  activity at 10 µM: 127 ± 1.5%
[4]; Mycobacterium tuberculosis, 144 h, 20 µM, pH 6.4, 250 mM NaCl, 6 days, read-out: rv2390c'::GFP validation assay NPA% at 20 µM compound
  activity at 20 µM: 131 ± 3.6%
[4]; Mycobacterium tuberculosis, 144 h, pH 6.4, 250 mM NaCl, 6 days, Fig 1C, read-out: AC50 (activatory concentration, 50%), rv2390c′::GFP
  AC50: 1800 nM
[5]; 10 μM, OD600 over 12 days
  Inhibition of Mtb growth in cholesterol media: inhibited Mtb growth
[5]; day 3, average
  OD600: 0.06
[5]; day 3, individual replicates
  OD600: 0.06
[5]; day 6, average
  OD600: 0.09333
[5]; day 6, individual replicates
  OD600: 0.1 (2×) and 0.08
[5]; day 9, average
  OD600: 0.12
[5]; day 9, individual replicates
  OD600: 0.12 and 0.1 and 0.14
[5]; day 12, average
  OD600: 0.1533
[5]; day 12, individual replicates
  OD600: 0.14 (2×) and 0.18
